Measurements published in ChEMBL document CHEMBL1201862, “PubChem BioAssay data set” (2004).
Structures can show the parent of a compound that is named as a salt.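 Dose response: 5 concentrations. Exposure: 48 h. Format: 96-well plates. Endpoint: linear interpolation; highest concentration if not reached. GI50 is the concentration that inhibits growth by half.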 Active and inactive are the calls of the source. No stated cut-off is given here; in the data, active = GI50 up to about 1.1 µM and inactive = higher.

Experiments:
Assay in all cases: NCI-60 cell line screen, 48 h
A498 = system: A498
A549 = system: A549
BT-549 = system: BT-549
CAKI-1 = system: CAKI-1
DMS-114 = system: DMS-114
DMS-273 = system: DMS-273
DU-145 = system: DU-145
EKVX = system: EKVX
HCT-116 = system: HCT-116
HOP-92 = system: HOP-92
KM-20L2 = system: KM-20L2
M19-MEL = system: M19-MEL
MDA-MB-435 = system: MDA-MB-435
MDA-N = system: MDA-N
MOLT-4 = system: MOLT-4
NCI-H226 = system: NCI-H226
NCI-H23 = system: NCI-H23
NCI-H460 = system: NCI-H460
NCI-H522 = system: NCI-H522
OVCAR-4 = system: OVCAR-4
OVCAR-5 = system: OVCAR-5
OVCAR-8 = system: OVCAR-8
PC-3 = system: PC-3
RPMI-8226 = system: RPMI-8226
RXF 393 = system: RXF 393
SF-268 = system: SF-268
SF-295 = system: SF-295
SF-539 = system: SF-539
SK-MEL-28 = system: SK-MEL-28
SNB-19 = system: SNB-19
SNB-78 = system: SNB-78
SR = system: SR
SW-620 = system: SW-620
T47D = system: T47D
TK-10 = system: TK-10
U-251 = system: U-251
UACC-257 = system: UACC-257
UACC-62 = system: UACC-62
UO-31 = system: UO-31
XF498 = system: XF498
786-0 = system: 786-0
ACHN = system: ACHN
CCRF-CEM = system: CCRF-CEM
COLO 205 = system: COLO 205
DLD-1 = system: DLD-1
HCT-15 = system: HCT-15
HL-60 = system: HL-60
HOP-62 = system: HOP-62
HT-29 = system: HT-29
IGROV-1 = system: IGROV-1
K562 = system: K562
KM12 = system: KM12
LOX IMVI = system: LOX IMVI
LXFL 529 = system: LXFL 529
M14 = system: M14
Malme-3M = system: Malme-3M
OVCAR-3 = system: OVCAR-3
SK-MEL-2 = system: SK-MEL-2
SK-MEL-5 = system: SK-MEL-5
SK-OV-3 = system: SK-OV-3
SN12C = system: SN12C
HCC 2998 = system: HCC 2998
HOP-18 = system: HOP-18
SNB-75 = system: SNB-75

## CCN(CC)CCNc1ccc(CO)c2sc3ccccc3c(=O)c12 [HYCANTHONE MESYLATE]
A498
  GI50: 6.1 µM (inactive)
A549
  GI50: 5.08 µM (inactive)
BT-549
  GI50: 13.5 µM (inactive)
CAKI-1
  GI50: 9.02 µM (inactive)
DMS-114
  GI50: 8.71 µM (inactive)
DMS-273
  GI50: 5.57 µM (inactive)
DU-145
  GI50: 9.57 µM (inactive)
EKVX
  GI50: 10.5 µM (inactive)
HCT-116
  GI50: 3.34 µM (inactive)
HOP-92
  GI50: 2.75 µM (inactive)
KM-20L2
  GI50: 8.2 µM (inactive)
M19-MEL
  GI50: 13.3 µM (inactive)
MDA-MB-435
  GI50: 3.27 µM (inactive)
MDA-N
  GI50: 5.12 µM (inactive)
MOLT-4
  GI50: 1.63 µM (inactive)
NCI-H226
  GI50: 8.91 µM (inactive)
NCI-H23
  GI50: 9.48 µM (inactive)
NCI-H460
  GI50: 3.05 µM (inactive)
NCI-H522
  GI50: 3.78 µM (inactive)
OVCAR-4
  GI50: 4.45 µM (inactive)
OVCAR-5
  GI50: 6.95 µM (inactive)
OVCAR-8
  GI50: 5.15 µM (inactive)
PC-3
  GI50: 5.81 µM (inactive)
RPMI-8226
  GI50: 12.9 µM (inactive)
RXF 393
  GI50: 5.19 µM (inactive)
SF-268
  GI50: 6.7 µM (inactive)
SF-295
  GI50: 8.26 µM (inactive)
SF-539
  GI50: 11 µM (inactive)
SK-MEL-28
  GI50: 9.68 µM (inactive)
SNB-19
  GI50: 11.4 µM (inactive)
SNB-78
  GI50: 13.4 µM (inactive)
SR
  GI50: 2.83 µM (inactive)
SW-620
  GI50: 2.75 µM (inactive)
T47D
  GI50: 11.5 µM (inactive)
TK-10
  GI50: 12.1 µM (inactive)
U-251
  GI50: 8.89 µM (inactive)
UACC-257
  GI50: 11.6 µM (inactive)
UACC-62
  GI50: 14.7 µM (inactive)
UO-31
  GI50: 4.1 µM (inactive)
XF498
  GI50: 11.6 µM (inactive)

## OCC(O)C(O)C(O)C(O)c1nnn[nH]1 (stereo not drawn)
786-0
  GI50: > 100 µM (inactive)
A549
  GI50: > 100 µM (inactive)
ACHN
  GI50: > 100 µM (inactive)
CAKI-1
  GI50: > 100 µM (inactive)
CCRF-CEM
  GI50: > 100 µM (inactive)
COLO 205
  GI50: > 100 µM (inactive)
DLD-1
  GI50: > 100 µM (inactive)
DMS-114
  GI50: > 100 µM (inactive)
DMS-273
  GI50: > 100 µM (inactive)
EKVX
  GI50: > 100 µM (inactive)
HCT-116
  GI50: > 100 µM (inactive)
HCT-15
  GI50: > 100 µM
HL-60
  GI50: > 100 µM (inactive)
HOP-62
  GI50: > 100 µM (inactive)
HOP-92
  GI50: > 100 µM (inactive)
HT-29
  GI50: > 100 µM (inactive)
IGROV-1
  GI50: > 100 µM (inactive)
K562
  GI50: > 100 µM (inactive)
KM12
  GI50: > 100 µM (inactive)
LOX IMVI
  GI50: > 100 µM (inactive)
LXFL 529
  GI50: > 100 µM (inactive)
M14
  GI50: > 100 µM (inactive)
M19-MEL
  GI50: > 100 µM (inactive)
MOLT-4
  GI50: > 100 µM (inactive)
Malme-3M
  GI50: > 100 µM (inactive)
NCI-H226
  GI50: > 100 µM (inactive)
NCI-H23
  GI50: > 100 µM (inactive)
NCI-H460
  GI50: > 100 µM (inactive)
NCI-H522
  GI50: > 100 µM (inactive)
OVCAR-3
  GI50: > 100 µM (inactive)
OVCAR-4
  GI50: > 100 µM (inactive)
OVCAR-5
  GI50: > 100 µM (inactive)
OVCAR-8
  GI50: > 100 µM (inactive)
RPMI-8226
  GI50: > 100 µM (inactive)
SF-268
  GI50: > 100 µM (inactive)
SF-295
  GI50: > 100 µM (inactive)
SF-539
  GI50: > 100 µM (inactive)
SK-MEL-2
  GI50: > 100 µM (inactive)
SK-MEL-5
  GI50: 78.9 µM (inactive)
SK-OV-3
  GI50: > 100 µM (inactive)
SN12C
  GI50: > 100 µM (inactive)
SNB-78
  GI50: > 100 µM (inactive)
SR
  GI50: > 100 µM (inactive)
SW-620
  GI50: > 100 µM (inactive)
U-251
  GI50: > 100 µM (inactive)
UACC-62
  GI50: > 100 µM (inactive)
UO-31
  GI50: > 100 µM (inactive)
XF498
  GI50: > 100 µM (inactive)

## O=C(Nc1cccc(C(F)(F)F)c1)C(=O)C1NC(=S)NC1=O (stereo not drawn)
786-0
  GI50: > 100 µM (inactive)
A498
  GI50: > 100 µM (inactive)
A549
  GI50: > 100 µM (inactive)
ACHN
  GI50: > 100 µM (inactive)
CAKI-1
  GI50: > 100 µM (inactive)
CCRF-CEM
  GI50: 54.5 µM (inactive)
COLO 205
  GI50: 39 µM (inactive)
DLD-1
  GI50: > 100 µM (inactive)
DMS-114
  GI50: > 100 µM (inactive)
DMS-273
  GI50: > 100 µM (inactive)
EKVX
  GI50: > 100 µM (inactive)
HCC 2998
  GI50: > 100 µM (inactive)
HCT-116
  GI50: 82.4 µM (inactive)
HCT-15
  GI50: 35.3 µM
HL-60
  GI50: > 100 µM (inactive)
HOP-18
  GI50: > 100 µM (inactive)
HOP-62
  GI50: > 100 µM (inactive)
HOP-92
  GI50: > 100 µM (inactive)
HT-29
  GI50: 61.9 µM (inactive)
IGROV-1
  GI50: > 100 µM (inactive)
K562
  GI50: 71.1 µM (inactive)
KM-20L2
  GI50: > 100 µM (inactive)
KM12
  GI50: > 100 µM (inactive)
LOX IMVI
  GI50: 72.9 µM (inactive)
LXFL 529
  GI50: > 100 µM (inactive)
M14
  GI50: > 100 µM (inactive)
M19-MEL
  GI50: > 100 µM (inactive)
MOLT-4
  GI50: > 100 µM (inactive)
Malme-3M
  GI50: > 100 µM (inactive)
NCI-H226
  GI50: > 100 µM (inactive)
NCI-H23
  GI50: > 100 µM (inactive)
NCI-H460
  GI50: > 100 µM (inactive)
OVCAR-3
  GI50: > 100 µM (inactive)
OVCAR-4
  GI50: > 100 µM (inactive)
OVCAR-5
  GI50: > 100 µM (inactive)
OVCAR-8
  GI50: > 100 µM (inactive)
RPMI-8226
  GI50: > 100 µM (inactive)
RXF 393
  GI50: > 100 µM (inactive)
SF-268
  GI50: > 100 µM (inactive)
SF-295
  GI50: > 100 µM (inactive)
SF-539
  GI50: > 100 µM (inactive)
SK-MEL-28
  GI50: > 100 µM (inactive)
SK-MEL-2
  GI50: > 100 µM (inactive)
SK-MEL-5
  GI50: > 100 µM (inactive)
SK-OV-3
  GI50: > 100 µM (inactive)
SN12C
  GI50: > 100 µM (inactive)
SNB-19
  GI50: > 100 µM (inactive)
SNB-75
  GI50: > 100 µM (inactive)
SNB-78
  GI50: > 100 µM (inactive)
SR
  GI50: > 100 µM (inactive)
SW-620
  GI50: 17.7 µM (inactive)
TK-10
  GI50: > 100 µM (inactive)
UACC-257
  GI50: 31.6 µM (inactive)
UACC-62
  GI50: > 100 µM (inactive)
UO-31
  GI50: > 100 µM (inactive)
